According to patent publication US20080249130A1, “Gut microsomal triglyceride transport protein inhibitors” (Sirtris Pharmaceuticals, Inc., priority 2007, published 2008):
Several values for one entry are separate records, joined by “and”; a condition that tells them apart may be missing. Identical values can stand only once. Counter-ions that a name gives are not always drawn. Like-named read-outs stand apart in the source and are kept apart here.

Tests used:
[1] = target: MTP (Homo sapiens, UniProt P55157); test: In vitro inhibition of MTP, triacylglycerol transfer assay with donor and acceptor liposomes (fluorescence); assay type: biochemical
Experimental: This assay is commercially available (Cat. #D400, Chylos Inc., New York). Liposomes are pipetted in 5 μl aliquots into the wells of a black fluorescence microtiter plate, followed by addition of 5 μl of water and an incubation of 2-5 min to allow the samples to equilibrate to rt. Next, 5 μl of compound dissolved in DMSO is added to the vesicles. The reaction is initated by the addition of 5 μl MTP, followed by incubation for 30 min at room temperature. […] Time of incubation can be increased to measure low activity in different samples. In such situations, samples are prepared just prior to measuring fluorescence units. For this purpose, isopropanol is added to substrate vesicles about 5 min prior to fluorescence measurement as the fluorescence readings in isopropanol decrease with time.

[2] = system: secretion of ApoB by HepG2 cells; test: ApoB secretion inhibition assay in HepG2 cells (ApoB ELISA); assay type: cell-based, human; settings: Homo sapiens
Experimental: The ability of the compounds of the present invention to inhibit the secretion of ApoB can be determined using the following cell-based assay, which measures the secretion of ApoB by HepG2 cells. ApoB has two possible metabolic fates: entrance into the lipoprotein assembly pathway within the lumen of the endoplasmic reticulum (ER), or degradation in the cytoplasm by the ubiquitin-dependent proteasome. The destiny of ApoB is determined by the relative availability of individual lipids, which is controlled by MTP (Davis, Biochim. Biophys. Acta, 1999, 1440, 1-31).
HepG2 cells (ATCC, HB-8065) are seeded in 96-well plates in DMEM with 10% FBS+pen/strep at a density of 1×10^5 cells/well (100 μl /well). Twenty-four hours after seeding, the plate is aspirated and the media changed to DMEM with 1% BSA and pen/strep, and the cells are serum-starved for 24 hours. After 24 hour serum-starvation, the plate is aspirated again and the cells are then treated for 24 hours with or without compound in DMEM with 1% BSA, 0.3 mM OA (OA complexed to BSA at a 2:1 ratio) and pen/strep. The final concentration of DMSO in the assay (from compound and control) is 0.1%. After 24 hour treatment, conditioned media is collected in an empty 96-well plate.
Cellular viability is measured using the cell permeable dye, AlamarBlue™. This dye undergoes electron reduction in viable cells but not dead cells. The reduced dye product gives a fluorescent signal which can be monitored with a fluorescence plate reader (excitation 545 nm and emission 575 nm). The amount of fluorescence generated in a given well is proportional to the number of viable cells. After collection, the 96-well plate is re-fed with 100 μl media (DMEM with 10% FBS) and 10 μl Alamar Blue™ per well, incubated for 2 hours and then read in a fluorescence plate reader.
ApoB secretion from HepG2 cells is quantitated by testing the conditioned media at […] using an ApoB ELISA kit (ALerCHEK) according to the manufacturer's instructions. The ELISA assay for ApoB is performed as follows: a polyclonal antibody against human ApoB (Chemicon) is diluted 1:1000 in carbonate-bicarbonate buffer and 100 μl are added to each well of a 96-well plate (NUNC). After 5 hours incubation at room temperature, the antibody solution is removed and wells are washed four times with PBS/0.05% TweenD 20 (Cayman Chemical Co.). Non-specific sites on the plastic plate are blocked by incubating wells for 1 to 1.5 hours in a solution of 0.5% BSA and 0.1% TweenD 20 made in PBS. One hundred microliters of a 1:20 dilution of growth medium from the HepG2 cells (made in 0.004% TweenD 20/1% BSA in PBS) is added to each well and incubated for 3 hours at room temperature. Wells are aspirated and washed four times (0.05% TweenD 20 in PBS) prior to adding 100 μl of a 1:1000 dilution (5 μg/ml) of the secondary antibody, mouse anti-human ApoB (Chemicon). After 2 hours incubation at room temperature, this solution is aspirated and the wells are again washed 4 times as above. One hundred microliters of peroxidase-conjugated affinity purified goat anti-mouse IgG (H+L) (Jackson ImmunoResearch Laboratories) (1:10,000 dilution in PBS/1% BSA/0.1% TweenD 20) is then added to each well and incubated for 1 hour at room temperature. After aspirating, the wells are washed 4 times as above and 50 μl of 1-step Ultra TMB ELISA reagent (Pierce) is added to each well and incubated for 5 minutes. The reaction is stopped by the addition of 50 μl of 2 NH2SO4 and absorbance of each well is read at 450 nm.

[3] = Table 6, assay of Example 3, read-out: IC50 Enzyme Assay
[4] = HepG2, Table 6, assay of Example 2, read-out: IC50 ApoB Assay
[5] = Tables 2-5, first symbol of the cell, read-out: IC50 Tri-acylglycerol (TAG) Transfer Assay (Example 3)
[6] = HepG2, Tables 2-5, second symbol of the cell, read-out: IC50 Apo B Secretion Assay (Example 2)

MTP, sequence (P55157 19-894, species assumed): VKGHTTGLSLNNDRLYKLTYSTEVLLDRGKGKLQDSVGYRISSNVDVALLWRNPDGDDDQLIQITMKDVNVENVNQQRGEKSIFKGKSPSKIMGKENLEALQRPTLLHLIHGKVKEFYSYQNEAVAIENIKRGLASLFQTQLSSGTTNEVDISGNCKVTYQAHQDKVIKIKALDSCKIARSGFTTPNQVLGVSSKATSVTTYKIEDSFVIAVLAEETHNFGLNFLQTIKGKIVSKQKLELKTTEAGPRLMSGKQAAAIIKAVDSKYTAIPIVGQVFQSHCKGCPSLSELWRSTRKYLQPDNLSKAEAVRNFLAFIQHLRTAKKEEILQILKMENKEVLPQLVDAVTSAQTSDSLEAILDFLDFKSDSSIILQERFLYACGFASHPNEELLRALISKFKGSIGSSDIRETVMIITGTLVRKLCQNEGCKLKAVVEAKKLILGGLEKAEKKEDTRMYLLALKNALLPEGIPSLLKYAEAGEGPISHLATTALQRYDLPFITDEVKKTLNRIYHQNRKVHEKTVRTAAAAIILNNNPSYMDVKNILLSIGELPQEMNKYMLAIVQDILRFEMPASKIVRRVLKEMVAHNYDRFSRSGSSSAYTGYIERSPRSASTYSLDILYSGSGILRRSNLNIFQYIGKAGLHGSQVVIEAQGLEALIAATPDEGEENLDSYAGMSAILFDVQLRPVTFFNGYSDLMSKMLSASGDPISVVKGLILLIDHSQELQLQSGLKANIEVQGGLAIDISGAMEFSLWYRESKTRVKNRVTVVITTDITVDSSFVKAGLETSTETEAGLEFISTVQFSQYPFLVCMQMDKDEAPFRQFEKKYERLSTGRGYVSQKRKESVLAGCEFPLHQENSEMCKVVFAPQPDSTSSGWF
MTP, sequence (P07237 18-508 partner, species assumed): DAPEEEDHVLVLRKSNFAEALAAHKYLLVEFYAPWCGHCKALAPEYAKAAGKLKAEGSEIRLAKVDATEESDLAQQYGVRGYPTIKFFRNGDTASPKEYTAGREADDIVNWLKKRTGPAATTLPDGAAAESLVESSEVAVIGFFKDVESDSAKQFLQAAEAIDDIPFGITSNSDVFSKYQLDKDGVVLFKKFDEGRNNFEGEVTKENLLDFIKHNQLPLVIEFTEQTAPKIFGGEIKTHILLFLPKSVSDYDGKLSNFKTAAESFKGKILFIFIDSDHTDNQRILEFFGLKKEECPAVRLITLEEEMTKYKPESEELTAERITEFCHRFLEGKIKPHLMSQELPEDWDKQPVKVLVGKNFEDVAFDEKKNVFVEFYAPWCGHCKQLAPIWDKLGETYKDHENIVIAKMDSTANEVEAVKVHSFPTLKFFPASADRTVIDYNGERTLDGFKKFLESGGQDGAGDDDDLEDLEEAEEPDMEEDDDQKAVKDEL

IC50 [1, 3]	IC50 [2, 4]	IC50 [1, 5]	IC50 [2, 6]	Structure (SMILES)
5.7 nM	6.7 nM			CC(C)(C)c1ccc(-c2ccccc2C(=O)Nc2nc(-c3ccc(C(=O)N[C@H](C(=O)N4CCCC4)c4ccccc4)cc3)cs2)cc1 [Compound 36, (S)-4′-tert-butyl-N-(4-(4-(2-oxo-1-phenyl-2-(pyrrolidin-1-yl)ethylcarbamoyl)phenyl)thiazol-2-yl)biphenyl-2-carboxamide]
3.6 nM	1.1 nM			COc1cccc(C(=O)Nc2ccc3nc(C(=O)N[C@H](C(=O)N4CCCC4)c4ccccc4)sc3c2)c1-c1ccc(C(C)C)cc1 [Compound 84]
95.8 nM	6.9 nM			Cc1csc2nc(-c3ccccc3C(=O)Nc3ccc4nc(C(=O)N[C@H](C(=O)N(C)Cc5ccc(F)cc5)c5ccccc5)sc4c3)cn12 [Compound 64, (S)—N-(2-((4-fluorobenzyl)(methyl)amino)-2-oxo-1-phenylethyl)-6-(2-(3-methylimidazo[2,1-b]thiazol-6-yl)benzamido)benzo[d]thiazole-2-carboxamide]
4.5 nM	8.5 nM			Cc1cccc(C(=O)Nc2nc(-c3cccc(C(=O)N[C@H](C(=O)N4CCCC4)c4ccccc4)c3)cs2)c1-c1ccc(C(C)(C)C)cc1 [Compound 42]
5.1 nM	2.3 nM			Cc1cccc(C(=O)Nc2ccc3nc(C(=O)N[C@H](C(=O)N4CCCC4)c4ccccc4)sc3c2)c1-c1ccc(C(C)C)cc1 [Compound 85]
2 nM	41 nM			CC(C)(C)c1ccc(-c2ccccc2C(=O)Nc2nc(-c3cccc(C(=O)N[C@H](C(=O)N4CCCC4)c4ccccc4)c3)cs2)cc1 [Compound 12, (S)-4′-tert-butyl-N-(4-(3-(2-oxo-1-phenyl-2-(pyrrolidin-1-yl)ethylcarbamoyl)phenyl)thiazol-2-yl)biphenyl-2-carboxamide]
7.1 nM	6.4 nM			CN(Cc1ccc(F)cc1)C(=O)[C@@H](NC(=O)c1cn2cc(NC(=O)c3ccccc3-c3ccc(C(C)(C)C)cc3)ccc2n1)c1ccccc1 [Compound 33, (S)-6-(4′-tert-butylbiphenyl-2-ylcarboxamido)-N-(2-((4-fluorobenzyl)(methyl)amino)-2-oxo-1-phenylethyl)imidazo[1,2-a]pyridine-2-carboxamide]
530 nM	3500 nM			CN(Cc1ccc(F)cc1)C(=O)[C@@H](NC(=O)c1ccc2nc(NC(=O)c3ccccc3C3CCNC3)ccc2c1)c1ccccc1 (stereo partly drawn) [Compound 2, N—((S)-2-((4-fluorobenzyl)(methyl)amino)-2-oxo-1-phenylethyl)-2-(2-(pyrrolidin-3-yl)benzamido)quinoline-6-carboxamide hydrochloride]
9.9 nM and 5.2 nM	1.5 nM			Cc1cccc(C(=O)Nc2ccc3nc(C(=O)N[C@H](C(=O)N(C)Cc4ccc(F)cc4)c4ccccc4)sc3c2)c1-c1ccc(C(C)C)cc1 [Compound 86]
		101 to 1000 nM	> 1010 nM	CN(Cc1ccc(F)cc1)C(=O)[C@@H](NC(=O)c1ccc2nc(NC(=O)c3ccccc3C3CCNC3)ccc2c1)c1ccccc1 (stereo partly drawn) [Compound C3]
145 nM	17.3 nM			CN(Cc1ccc(F)cc1)C(=O)[C@@H](NC(=O)c1nc2ccc(NC(=O)c3ccccc3-c3ccc(C(F)(F)F)cc3)cc2s1)c1ccccc1 [Compound 32]
		< 100 nM	< 100 nM	CN(Cc1ccc(F)cc1)C(=O)[C@@H](NC(=O)c1nc2ccc(NC(=O)c3ccccc3-c3ccc(C(C)(C)C)cc3)cc2s1)c1ccccc1 (single isomer, unassigned)
9.5 nM	6.5 nM			CCCCN(C)C(=O)[C@@H](NC(=O)c1nc2ccc(NC(=O)c3ccccc3-c3ccc(C(C)(C)C)cc3)cc2s1)c1ccccc1 [Compound 5]
2.6 nM	1 nM			CC(C)(C)c1ccc(-c2ccccc2C(=O)Nc2ccc3nc(C(=O)N[C@H](C(=O)N4CCCC4)c4ccccc4)sc3c2)cc1 [Compound 7]
10.2 nM	13.2 nM			Cc1cccc(C(=O)Nc2nc(-c3ccc(C(=O)N[C@H](C(=O)N4CCCC4)c4ccccc4)cc3)cs2)c1-c1ccc(C(C)(C)C)cc1 [Compound 83]
3.1 nM	2.7 nM			COc1cccc(C(=O)Nc2ccc3nc(C(=O)N[C@H](C(=O)N4CCCC4)c4ccccc4)sc3c2)c1-c1ccc(C(F)(F)F)cc1 [Compound 79]
13.9 nM and 3 nM	3 nM			CN(Cc1ccc(F)cc1)C(=O)[C@@H](NC(=O)c1nc2ccc(NC(=O)c3ccccc3-c3ccc(C(C)(C)C)cc3)cc2s1)c1ccccc1 [Compound 4, (S)-6-(4′-tert-butylbiphenyl-2-ylcarboxamido)-N-(2-((4-fluorobenzyl)(methyl)amino)-2-oxo-1-phenylethyl)benzo[d]thiazole-2-carboxamide]
3.8 nM	1.2 nM			COc1cccc(C(=O)Nc2ccc3nc(C(=O)N[C@H](C(=O)N4CCCC4)c4ccccc4)sc3c2)c1-c1ccc(C(C)(C)C)cc1 [Compound 77]
> 1000 nM	6000 nM			CN(Cc1ccc(F)cc1)C(=O)[C@@H](NC(=O)c1ccc2nc(NC(=O)c3ccccc3C3CCNCC3)ccc2c1)c1ccccc1 [Compound 1, (S)—N-(2-((4-fluorobenzyl)(methyl)amino)-2-oxo-1-phenylethyl)-2-(2-(piperidin-4-yl)benzamido)quinoline-6-carboxamide hydrochloride]
5.2 nM	8.8 nM			CC(C)(C)c1ccc(-c2ccccc2C(=O)Nc2ccc3nc(C(=O)N[C@H](C(=O)N4CCC(F)(F)C4)c4ccccc4)sc3c2)cc1 [Compound 14]
15 nM	23.7 nM			CN(Cc1ccc(F)cc1)C(=O)[C@@H](NC(=O)c1nc2ccc(NC(=O)c3ccccc3-c3cn4ccsc4n3)cc2s1)c1ccccc1 [Compound 24, (S)—N-(2-((4-fluorobenzyl)(methyl)amino)-2-oxo-1-phenylethyl)-6-(2-(imidazo[2,1-b]thiazol-6-yl)benzamido)benzo[d]thiazole-2-carboxamide]
8.1 nM and 3.9 nM	6.7 nM			CC(C)c1ccc(-c2ccccc2C(=O)Nc2ccc3nc(C(=O)N[C@H](C(=O)N4CCCC4)c4ccccc4)sc3c2)cc1 [Compound 55, (S)-6-(4′-isopropylbiphenyl-2-ylcarboxamido)-N-(2-oxo-1-phenyl-2-(pyrrolidin-1-yl)ethyl)benzo[d]thiazole-2-carboxamide]
15.3 nM and 11.2 nM	6.2 nM			CC(C)c1ccc(-c2ccccc2C(=O)Nc2ccc3nc(C(=O)N[C@H](C(=O)N(C)Cc4ccc(F)cc4)c4ccccc4)sc3c2)cc1 [Compound 54, (S)—N-(2-((4-fluorobenzyl)(methyl)amino)-2-oxo-1-phenylethyl)-6-(4′-isopropylbiphenyl-2-ylcarboxamido)benzo[d]thiazole-2-carboxamide]
8.4 nM	3.1 nM			CCCCCNC(=O)[C@@H](NC(=O)c1nc2ccc(NC(=O)c3ccccc3-c3ccc(C(C)(C)C)cc3)cc2s1)c1ccccc1 [Compound 8]
